Reference: patent US20230212549A1, “COMPOUNDS COMPRISING A […] LIGAND AND USE THEREOF” (priority 2021, published 2023)
Numbered stars: 1 amine (or outer) side, 2 acyl side, 3 side chain; on linkers, the order of the positions; unused ones are H or OH. Bridge positions count the residues as written; N and C are the ends. Square brackets hold non-standard residues; d marks the D form. Peptide text beside a SMILES is read from it. * marks the point of attachment. NH(1-deoxy-D-glucityl) = OC[C@@H](O)[C@@H](O)[C@H](O)[C@@H](O)CN*; X3 = NCCNCC(CNCCN)C(=O)NCCCOCCOCCOCCCN*; mXylylene = c1cc(C[*:1])cc(C[*:2])c1; Suc = O=C(CCC(=O)[*:2])[*:1]; Nle = CCCC[C@H](N)C(=O)O

Experiments:
Human recombinant FAP = Human recombinant FAP (Homo sapiens, UniProt Q12884); experiment: FRET-based FAP protease activity assay; assay type: biochemical; set-up: purchased R&D systems 3715-SE; settings: pIC50 Category (Activity), FRET-peptide substrate, 37° C.
Chain of Human recombinant FAP (Q12884 whole entry): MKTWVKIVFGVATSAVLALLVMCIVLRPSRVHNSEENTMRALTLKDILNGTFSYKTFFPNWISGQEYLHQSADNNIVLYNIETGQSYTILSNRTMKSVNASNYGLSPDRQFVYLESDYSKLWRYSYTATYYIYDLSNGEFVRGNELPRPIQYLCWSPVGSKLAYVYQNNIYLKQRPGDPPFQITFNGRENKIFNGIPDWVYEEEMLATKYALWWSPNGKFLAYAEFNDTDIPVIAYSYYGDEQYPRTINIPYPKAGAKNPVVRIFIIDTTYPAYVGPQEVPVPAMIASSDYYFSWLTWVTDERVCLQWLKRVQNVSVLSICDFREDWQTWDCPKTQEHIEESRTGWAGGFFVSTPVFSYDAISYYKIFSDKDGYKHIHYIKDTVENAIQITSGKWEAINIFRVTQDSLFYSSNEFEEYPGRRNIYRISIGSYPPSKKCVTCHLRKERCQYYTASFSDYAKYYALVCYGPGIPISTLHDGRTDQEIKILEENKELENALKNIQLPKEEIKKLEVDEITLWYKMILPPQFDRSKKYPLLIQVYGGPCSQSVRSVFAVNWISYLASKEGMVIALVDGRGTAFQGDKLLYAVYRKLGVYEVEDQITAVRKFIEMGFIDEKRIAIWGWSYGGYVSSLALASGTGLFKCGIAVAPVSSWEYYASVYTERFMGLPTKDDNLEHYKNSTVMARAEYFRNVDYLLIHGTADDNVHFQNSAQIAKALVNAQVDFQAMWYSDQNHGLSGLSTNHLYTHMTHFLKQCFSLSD

[1] = biological target: T1, FAP-expressing human WI-38 fibroblasts (Homo sapiens, UniProt Q12884); experiment: Competitive FACS binding assay
T1 construct: FAP-expressing human WI-38 fibroblasts (ECACC) were cultured in EMEM; host or cells: WI-38 human fibroblasts
T1 sequence (Q12884 whole entry): as above
Description: Cells were analyzed in an Attune NxT flow cytometer. […] […].
Cells were analyzed in an Attune NxT flow cytometer. […]

| SMILES | IC50 (Human recombinant FAP) | IC50 [1] |
| --- | --- | --- |
| C[C@@H](O)[C@@H]1NC(=O)[C@@H]2CCCN2C(=O)[C@@H]2CCCN2C(=O)[C@@H](NC(=O)[C@H]2CCCO2)CSCc2cc(CSCCNC(=O)CN3CCN(CC(=O)O)CCN(CC(=O)O)CCN(CC(=O)O)CC3)cc(c2)CSC[C@@H](C(=O)O)NC(=O)[C@H](Cc2ccccc2)NC(=O)[C@H](CCC(N)=O)NC1=O [3BP-3911, Rth-[Cys(tMeBn(DOTA-AET))-Pro-Pro-Thr-Gln-Phe-Cys]-OH] | 10 to 79.4 nM | 10 to 79.4 nM |
| C#CCCC(=O)N[C@H]1CSCc2cc(CSCCNC(=O)CN3CCN(CC(=O)O)CCN(CC(=O)O)CCN(CC(=O)O)CC3)cc(c2)CSC[C@@H](C(=O)O)NC(=O)[C@H](Cc2ccccc2)NC(=O)[C@H](CCC(N)=O)NC(=O)[C@H]([C@@H](C)O)NC(=O)[C@@H]2CCCN2C(=O)[C@@H]2CCCN2C1=O [3BP-3912, Pyn-[Cys(tMeBn(DOTA-AET))-Pro-Pro-Thr-Gln-Phe-Cys]-OH] | 100 to 794 nM | 10 to 79.4 nM |
| C#CCCCC(=O)N[C@H]1CSCc2cc(CSCCNC(=O)CN3CCN(CC(=O)O)CCN(CC(=O)O)CCN(CC(=O)O)CC3)cc(c2)CSC[C@@H](C(=O)O)NC(=O)[C@H](Cc2ccccc2)NC(=O)[C@H](CCC(N)=O)NC(=O)[C@H]([C@@H](C)O)NC(=O)[C@@H]2CCCN2C(=O)[C@@H]2CCCN2C1=O [3BP-3913, Hyn-[Cys(tMeBn(DOTA-AET))-Pro-Pro-Thr-Gln-Phe-Cys]-OH] | 10 to 79.4 nM | 10 to 79.4 nM |
| C=CCCC(=O)N[C@H]1CSCc2cc(CSCCNC(=O)CN3CCN(CC(=O)O)CCN(CC(=O)O)CCN(CC(=O)O)CC3)cc(c2)CSC[C@@H](C(=O)O)NC(=O)[C@H](Cc2ccccc2)NC(=O)[C@H](CCC(N)=O)NC(=O)[C@H]([C@@H](C)O)NC(=O)[C@@H]2CCCN2C(=O)[C@@H]2CCCN2C1=O [3BP-3914, Peet-[Cys(tMeBn(DOTA-AET))-Pro-Pro-Thr-Gln-Phe-Cys]-OH] | 10 to 79.4 nM | 10 to 79.4 nM |
| C=CCOC(=O)N[C@H]1CSCc2cc(CSCCNC(=O)CN3CCN(CC(=O)O)CCN(CC(=O)O)CCN(CC(=O)O)CC3)cc(c2)CSC[C@@H](C(=O)O)NC(=O)[C@H](Cc2ccccc2)NC(=O)[C@H](CCC(N)=O)NC(=O)[C@H]([C@@H](C)O)NC(=O)[C@@H]2CCCN2C(=O)[C@@H]2CCCN2C1=O [3BP-3915, Alloc-[Cys(tMeBn(DOTA-AET))-Pro-Pro-Thr-Gln-Phe-Cys]-OH] | 10 to 79.4 nM | 10 to 79.4 nM |
| C=CCCOC(=O)N[C@H]1CSCc2cc(CSCCNC(=O)CN3CCN(CC(=O)O)CCN(CC(=O)O)CCN(CC(=O)O)CC3)cc(c2)CSC[C@@H](C(=O)O)NC(=O)[C@H](Cc2ccccc2)NC(=O)[C@H](CCC(N)=O)NC(=O)[C@H]([C@@H](C)O)NC(=O)[C@@H]2CCCN2C(=O)[C@@H]2CCCN2C1=O [3BP-3916, Bulloc-[Cys(tMeBn(DOTA-AET))-Pro-Pro-Thr-Gln-Phe-Cys]-OH] | 10 to 79.4 nM | < 10 nM |
| C[C@@H](O)[C@@H]1NC(=O)[C@@H]2CCCN2C(=O)[C@@H]2CCCN2C(=O)[C@@H](NC(=O)NC2CCCC2)CSCc2cc(CSCCNC(=O)CN3CCN(CC(=O)O)CCN(CC(=O)O)CCN(CC(=O)O)CC3)cc(c2)CSC[C@@H](C(=O)O)NC(=O)[C@H](Cc2ccccc2)NC(=O)[C@H](CCC(N)=O)NC1=O [3BP-3917, Cpentyl-CAyl-[Cys(tMeBn(DOTA-AET))-Pro-Pro-Thr-Gln-Phe-Cys]-OH] | 10 to 79.4 nM | 10 to 79.4 nM |
| C[C@@H](O)[C@@H]1NC(=O)[C@@H]2CCCN2C(=O)[C@@H]2CCCN2C(=O)[C@@H](NC(=O)C2CCOC2)CSCc2cc(CSCCNC(=O)CN3CCN(CC(=O)O)CCN(CC(=O)O)CCN(CC(=O)O)CC3)cc(c2)CSC[C@@H](C(=O)O)NC(=O)[C@H](Cc2ccccc2)NC(=O)[C@H](CCC(N)=O)NC1=O (stereo partly drawn) [3BP-3919, Fur-[Cys(tMeBn(DOTA-AET))-Pro-Pro-Thr-Gln-Phe-Cys]-OH] | 100 to 794 nM | 100 to 794 nM |
| C[C@@H](O)[C@@H]1NC(=O)[C@@H]2CCCN2C(=O)[C@@H]2CCCN2C(=O)[C@@H](NC(=O)[C@@H]2CCCO2)CSCc2cc(CSCCNC(=O)CN3CCN(CC(=O)O)CCN(CC(=O)O)CCN(CC(=O)O)CC3)cc(c2)CSC[C@@H](C(=O)O)NC(=O)[C@H](Cc2ccccc2)NC(=O)[C@H](CCC(N)=O)NC1=O [3BP-3936, Sth-[Cys(tMeBn(DOTA-AET))-Pro-Pro-Thr-Gln-Phe-Cys]-OH] | 10 to 79.4 nM | 10 to 79.4 nM |
| CCCCCC(=O)N[C@H]1CSCc2cc(CSCCNC(=O)CCC(=O)NCCCOCCOCCOCCCNC(=O)CCC(=O)NCCCOCCOCCOCCCNC(=O)CCC(=O)NCCCOCCOCCOCCCNC(=O)CCC(=O)NCCCOCCOCCOCCCNC(=O)CCCC[C@@H]3SC[C@@H]4NC(=O)N[C@@H]43)cc(c2)CSC[C@@H](C(=O)O)NC(=O)[C@H](Cc2ccccc2)NC(=O)[C@H](CCC(N)=O)NC(=O)[C@H]([C@@H](C)O)NC(=O)[C@@H]2CCCN2C(=O)[C@@H]2CCCN2C1=O [3BP-4170, Hex-[Cys-(tMeBn(Bio-Ttds-Ttds-Ttds-Ttds-AET))-Pro-Pro-Thr-Gln-Phe-Cys]-OH] | 10 to 79.4 nM | 10 to 79.4 nM |
| CCCCCC(=O)N[C@H]1CSCc2cc(CSCCNC(=O)CCC(=O)NCCCOCCOCCOCCCNC(=O)[C@H](CO)NC(=O)[C@H](CO)NC(=O)[C@H](CO)NC(=O)CS)cc(c2)CSC[C@@H](C(=O)O)NC(=O)[C@H](Cc2ccccc2)NC(=O)[C@H](CCC(N)=O)NC(=O)[C@H]([C@@H](C)O)NC(=O)[C@@H]2CCCN2C(=O)[C@@H]2CCCN2C1=O [3BP-4308, Hex-[Cys-(tMeBn(H-SAc-Ser-Ser-Ser-Ttds-AET))-Pro-Pro-Thr-Gln-Phe-Cys]-OH] | 10 to 79.4 nM | 10 to 79.4 nM |
| CCCCCC(=O)N[C@H]1CSCc2cc(CSCCNC(=O)CCCC(=O)Nc3ccc(C[C@@H](CN(CCN(CC(=O)O)CC(=O)O)CC(=O)O)N(CC(=O)O)CC(=O)O)cc3)cc(c2)CSC[C@@H](C(=O)O)NC(=O)[C@H](Cc2ccccc2)NC(=O)[C@H](CCC(N)=O)NC(=O)[C@H]([C@@H](C)O)NC(=O)[C@@H]2CCCN2C(=O)[C@@H]2CCCN2C1=O [3BP-4366, Hex-[Cys-(tMeBn(DTPABzl-Glutar-AET))-Pro-Pro-Thr-Gln-Phe-Cys]-OH] | 100 to 794 nM | 100 to 794 nM |
| CCCCCC(=O)N[C@H]1CSCc2cc(CSCCNC(=O)CCOCCOCCOCCOCCOCCOCCNC(=O)CCc3ccc(O)c(CN(CCN(CC(=O)O)Cc4cc(CCC(=O)O)ccc4O)CC(=O)O)c3)cc(c2)CSC[C@@H](C(=O)O)NC(=O)[C@H](Cc2ccccc2)NC(=O)[C@H](CCC(N)=O)NC(=O)[C@H]([C@@H](C)O)NC(=O)[C@@H]2CCCN2C(=O)[C@@H]2CCCN2C1=O [3BP-4383, Hex-[Cys(tMeBn(HBED-PEG6-AET))-Pro-Pro-Thr-Gln-Phe-Cys]-OH] | 10 to 79.4 nM | 10 to 79.4 nM |

Continued, values first:

| IC50 (Human recombinant FAP) | IC50 [1] | SMILES |
| --- | --- | --- |
| 10 to 79.4 nM | < 10 nM | COCCCC(=O)N[C@H]1CSCc2cc(CSCCNC(=O)CN3CCN(CC(=O)O)CCN(CC(=O)O)CCN(CC(=O)O)CC3)cc(c2)CSC[C@@H](C(=O)O)NC(=O)[C@H](Cc2ccccc2)NC(=O)[C@H](CCC(N)=O)NC(=O)[C@H]([C@@H](C)O)NC(=O)[C@@H]2CCCN2C(=O)[C@@H]2CCCN2C1=O [3BP-3937, MeOBut-[Cys(tMeBn(DOTA-AET))-Pro-Pro-Thr-Gln-Phe-Cys]-OH] |
| < 10 nM | < 10 nM | CCCOCC(=O)N[C@H]1CSCc2cc(CSCCNC(=O)CN3CCN(CC(=O)O)CCN(CC(=O)O)CCN(CC(=O)O)CC3)cc(c2)CSC[C@@H](C(=O)O)NC(=O)[C@H](Cc2ccccc2)NC(=O)[C@H](CCC(N)=O)NC(=O)[C@H]([C@@H](C)O)NC(=O)[C@@H]2CCCN2C(=O)[C@@H]2CCCN2C1=O [3BP-3938, PrOAc-[Cys(tMeBn(DOTA-AET))-Pro-Pro-Thr-Gln-Phe-Cys]-OH] |
| > 1000 nM | > 1000 nM | CCCC[C@H](NC(=O)[C@H](CCC(=O)NC[C@H](O)[C@@H](O)[C@H](O)[C@H](O)CO)NC(=O)CCC(=O)NCCCOCCOCCOCCCNC(=O)C(CNCCN)CNCCN)C(=O)N[C@H]1CSCc2cccc(c2)CSC[C@@H](C(=O)O)NC(=O)[C@H](Cc2ccccc2)NC(=O)[C@H](CCC(=O)O)NC(=O)[C@H]([C@@H](C)O)NC(=O)[C@@H]2CCCN2C(=O)[C@@H]2CCCN2C1=O [3BP-4231, N4Ac-Ttds-Glu(AGLU′)-Nle-[Cys-(3MeBn)-Pro-Pro-Thr-Glu-Phe-Cys]-OH] ({X3-Suc}-E(NH(1-deoxy-D-glucityl))[Nle]CPPTEFC-OH; linker 3-9 via mXylylene) |
| 10 to 79.4 nM | 10 to 79.4 nM | CCCC[C@H](NC(=O)CCC(=O)NCCCOCCOCCOCCCNC(=O)CC[C@H](NC(=O)C(CNCCN)CNCCN)C(=O)O)C(=O)N[C@H]1CSCc2cccc(c2)CSC[C@@H](C(=O)O)NC(=O)[C@H](Cc2ccccc2)NC(=O)[C@H](CCC(N)=O)NC(=O)[C@H]([C@@H](C)O)NC(=O)[C@@H]2CCCN2C(=O)[C@@H]2CCCN2C1=O [3BP-4245, N4Ac-gGlu-Ttds-Nle-[Cys-(3MeBn)-Pro-Pro-Thr-Gln-Phe-Cys]-OH] |
| > 1000 nM | > 1000 nM | CCCC[C@H](NC(=O)[C@H](CCC(=O)NC[C@H](O)[C@@H](O)[C@H](O)[C@H](O)CO)NC(=O)CCC(=O)NCCCOCCOCCOCCCNC(=O)C(CNCCN)CNCCN)C(=O)N[C@H]1CSCc2cccc(c2)CSC[C@@H](C(=O)O)NC(=O)[C@H](Cc2ccccc2)NC(=O)[C@H](CCC(N)=O)NC(=O)[C@H]([C@@H](C)O)NC(=O)[C@@H]2CCCN2C(=O)[C@@H]2CCCN2C1=O [3BP-4248, N4Ac-Ttds-Glu(AGLU′)-Nle-[Cys-(3MeBn)-Pro-Pro-Thr-Gln-Phe-Cys]-OH] |
| 10 to 79.4 nM | 100 to 794 nM | CCCC[C@H](NC(=O)CCC(=O)NCCCOCCOCCOCCCNC(=O)[C@H](CCC(=O)NC[C@H](O)[C@@H](O)[C@H](O)[C@H](O)CO)NC(=O)[C@H](CCC(=O)NC[C@H](O)[C@@H](O)[C@H](O)[C@H](O)CO)NC(=O)C(CNCCN)CNCCN)C(=O)N[C@H]1CSCc2cccc(c2)CSC[C@@H](C(=O)O)NC(=O)[C@H](Cc2ccccc2)NC(=O)[C@H](CCC(N)=O)NC(=O)[C@H]([C@@H](C)O)NC(=O)[C@@H]2CCCN2C(=O)[C@@H]2CCCN2C1=O [3BP-4265, N4Ac-Glu(AGLU′)-Glu(AGLU′)-Ttds-Nle-[Cys-(3MeBn)-Pro-Pro-Thr-Gln-Phe-Cys]-OH] |
